Here are results for eleven molecules from patent publication US20250144220A1, “CONJUGATE FOR PREVENTING AND TREATING VIRAL INFECTIONS AND USE THEREOF” (priority 2021, published 2025).

Data set [1] has as its target Influenza A H1N1 (A/California/04/2009) Neuraminidase/NA (Influenza A virus (A/California/04/2009(H1N1)), UniProt C3W5S3). Kind of data set: biochemical. As to conditions: neuraminidase 1 U/ml.
Another data set relates to H1N1(A/PR/8/34) virus. In words: microbe, parasite or virus in culture. The class given is cell-based. As to conditions: Influenza A virus, 96 h.
The nature of a further data set: in vitro. As to conditions: dog. Format: cell-based. How it is done: • Toxicity of the tested compounds to MDCK cells was quantified by MDCK cell lines. […] The cell control without compound was also configured. The cells were incubated in an incubator for 4 days. • 4) 50 μL of Cell-titer Glo was added to each well, and the chemiluminescence was detected by a Microplate Reader. Inhibition rate=(average value of cell control−value of tested compounds)/average value of cell control […]

The test system of a further data set is IFV B/Lee/40. Kind of data set: microbe, parasite or virus in culture. As to conditions: unidentified influenza virus, 120 h. The class given is cell-based.
Data set [2] deals with IFV A/California/2/2014 (H3N2). Kind of data set: microbe, parasite or virus in culture. As to conditions: Influenza A virus, 120 h. The class given is cell-based.
The next data set concerns H1N1(A/PR/8/34). In words: microbe, parasite or virus in culture. The class given is cell-based, influenza virus H1N1(A/PR/8/34). As to conditions: Influenza A virus, MDCK, 96 h.
Data set [3] concerns B/Jiangsu/YZ08/2018 (Yamagata). Kind of data set: microbe, parasite or virus in culture. Format: cell-based. As to conditions: unidentified influenza virus, MDCK cells, 72 hours.
The test system of another data set is B/YZ29/2019 (Victoria). In words: microbe, parasite or virus in culture. The class given is cell-based. As to conditions: unidentified influenza virus, MDCK cells, 72 hours.
In data set [4] the test system is A/Chicken/Jiangsu/k0402/2010 (H5N1). In words: microbe, parasite or virus in culture. The class given is cell-based. As to conditions: Influenza A virus, H5N1, MDCK, 72 h.
The test system of data set [5] is A/Chicken/Eastern/JTC11/2013 (H7N9). Kind of data set: microbe, parasite or virus in culture. The class given is cell-based. As to conditions: Influenza A virus, H7N9, MDCK, 72 h.
Setting [6] is: MDCK cells, H1N1(A/PR/8/34), 4 days, Cell-titer Glo.
Where [7] appears, read: IFV B/Lee/40, MDCK cells, 5 days, read-out: EC50.
Where [8] appears, read: IFV A/California/2/2014 (H3N2), MDCK cells, 5 days, read-out: EC50.

Read-outs that look alike come from different tables or passages of the source.

Regarding `C#CCOCCOCCOCCNC(=N)N(CCOCCN(C)C(=O)O[C@@H]([C@@H]1OC(C(=O)O)=C[C@H](NC(=N)N)[C@H]1NC(C)=O)[C@H](O)CO)CCOCCN(C)C(=O)O[C@@H]([C@@H]1OC(C(=O)O)=C[C@H](NC(=N)N)[C@H]1NC(C)=O)[C@H](O)CO` [C-Inter-10], in data set [1], the IC50 came out at 10.8 nM. Also, the midpoint of the response in the data set with H1N1(A/PR/8/34) virus (setting [6]), the EC50, lay at 0.39 nM. Besides, the CC50 at 4 days in the data set “in vitro” was more than 100000 nM.

`O=C1c2c(O)c(=O)ccn2N([C@@H]2c3ccccc3SCc3c2ccc(F)c3F)[C@@H]2COCCN12` [Baloxavir, baloxivir]: the EC50 with IFV B/Lee/40 (MDCK) came to 1.47 nM; in [2] (H3N2, MDCK), 0.39 nM.

`C#CCOCCOCCOCCOCCNC(=O)N(CCOCCN(C)C(=O)O[C@@H]([C@@H]1OC(C(=O)O)=C[C@H](NC(=N)N)[C@H]1NC(C)=O)[C@H](O)CO)CCOCCN(C)C(=O)O[C@@H]([C@@H]1OC(C(=O)O)=C[C@H](NC(=N)N)[C@H]1NC(C)=O)[C@H](O)CO` [C-Inter-2] registered an IC50 in data set [1] of 14.2 nM. Further, in the data set on H1N1(A/PR/8/34) virus (setting [6]), a half-maximal response (EC50) required 0.42 nM. In addition, the CC50 at 4 days in “in vitro” is more than 100000 nM.

Molecule `C#CCOCCOCCOCCOCCN(C)C(=O)N(CCOCCN(C)C(=O)O[C@@H]([C@@H]1OC(C(=O)O)=C[C@H](NC(=N)N)[C@H]1NC(C)=O)[C@H](O)CO)CCOCCN(C)C(=O)O[C@@H]([C@@H]1OC(C(=O)O)=C[C@H](NC(=N)N)[C@H]1NC(C)=O)[C@H](O)CO` [C-Inter-6] registered an IC50 in data set [1] of 11.9 nM. Besides, the response in the data set on H1N1(A/PR/8/34) virus (setting [6]) was half-maximal at 0.25 nM (EC50). The CC50 at 4 days in the data set “in vitro” was more than 100000 nM.

With `C#CCOCCOCCOCCOCCNS(=O)(=O)N(CCOCCN(C)C(=O)O[C@@H]([C@@H]1OC(C(=O)O)=C[C@H](NC(=N)N)[C@H]1NC(C)=O)[C@H](O)CO)CCOCCN(C)C(=O)O[C@@H]([C@@H]1OC(C(=O)O)=C[C@H](NC(=N)N)[C@H]1NC(C)=O)[C@H](O)CO` [C-Inter-7], the midpoint of inhibition in [1], the IC50, lay at 7.64 nM. The molecule further registered an EC50 in the data set with H1N1(A/PR/8/34) virus (setting [6]) of 0.57 nM. The molecule further yielded a CC50 at 4 days in the data set “in vitro” of more than 100000 nM.

`C#CCOCCOCCOCCOCCOC(=O)N(CCOCCN(C)C(=O)O[C@@H]([C@@H]1OC(C(=O)O)=C[C@H](NC(=N)N)[C@H]1NC(C)=O)[C@H](O)CO)CCOCCN(C)C(=O)O[C@@H]([C@@H]1OC(C(=O)O)=C[C@H](NC(=N)N)[C@H]1NC(C)=O)[C@H](O)CO` [C-Inter-1] had an IC50 in data set [1] of 10.4 nM. The same molecule came in with an EC50 in the data set on H1N1(A/PR/8/34) virus (setting [6]) of 0.28 nM. The molecule also had a CC50 at 4 days in the data set “in vitro” of more than 100000 nM.

In [1], `C#CCOCCOCCOCCN1CCN(C(=O)N(CCOCCN(C)C(=O)O[C@@H]([C@@H]2OC(C(=O)O)=C[C@H](NC(=N)N)[C@H]2NC(C)=O)[C@H](O)CO)CCOCCN(C)C(=O)O[C@@H]([C@@H]2OC(C(=O)O)=C[C@H](NC(=N)N)[C@H]2NC(C)=O)[C@H](O)CO)CC1` [C-Inter-4] yielded an IC50 of 48.7 nM.

For the molecule `CC(=O)N[C@H]1[C@H]([C@H](O)[C@H](O)CO)OC(C(=O)O)=C[C@@H]1N=C(N)N` [Zanamivir, zanamivir, reference compound], the EC50 with H1N1(A/PR/8/34) virus (MDCK) was 39.7 nM; in the data set on H1N1(A/PR/8/34), 45.7 nM; in [3], 90 nM; with B/YZ29/2019 (Victoria), 59 nM; in the data set on IFV B/Lee/40 (setting [7]), 57.5 nM; in data set [2] (setting [8]), more than 10000 nM. In the data set “in vitro”, the CC50 was more than 100000 nM.

On to `C#CCOCCOCCOCCOC1CCN(C(=O)N(CCOCCN(C)C(=O)O[C@@H]([C@@H]2OC(C(=O)O)=C[C@H](NC(=N)N)[C@H]2NC(C)=O)[C@H](O)CO)CCOCCN(C)C(=O)O[C@@H]([C@@H]2OC(C(=O)O)=C[C@H](NC(=N)N)[C@H]2NC(C)=O)[C@H](O)CO)CC1` [C-Inter-5], for which the IC50 in [1] amounted to 37 nM. In the data set on H1N1(A/PR/8/34) virus (setting [6]), this molecule showed an EC50 of 0.45 nM. In addition, the CC50 at 4 days in “in vitro” was more than 100000 nM.

Take `CCC(CC)O[C@@H]1C=C(C(=O)O)C[C@H](N)[C@H]1NC(C)=O` [Oseltamivir acid]: the EC50 in data set [4] was 210 nM; in data set [5], 540 nM; in data set [3], 780 nM; in the data set on B/YZ29/2019 (Victoria), 710 nM; in the data set on IFV B/Lee/40 (setting [7]) it was 801 nM; in [2] (setting [8]), more than 100000 nM.

For `C#CCOCCOCCOCCN1CCC(N(CCOCCN(C)C(=O)O[C@@H]([C@@H]2OC(C(=O)O)=C[C@H](NC(=N)N)[C@H]2NC(C)=O)[C@H](O)CO)CCOCCN(C)C(=O)O[C@@H]([C@@H]2OC(C(=O)O)=C[C@H](NC(=N)N)[C@H]2NC(C)=O)[C@H](O)CO)CC1` [C-Inter-3], the IC50 in [1] came to 21.3 nM. The same molecule yielded an EC50 in the data set on H1N1(A/PR/8/34) virus (setting [6]) of 0.39 nM. Moreover, the 50% cytotoxic concentration (CC50) at 4 days in the data set “in vitro” was more than 100000 nM.
